One compound from paper PMC6934184, “Selective DNA-PKcs inhibition extends the therapeutic index of localized radiotherapy and chemotherapy” (The Journal of Clinical Investigation, 2019) can be followed below.

The target of this assay is T1, MUSK (Homo sapiens, UniProt O15146).
T1 construct: purchased Thermo Fisher Scientific (Life Technologies) SelectScreen
In words: SelectScreen Z'LYTE. It counts as biochemical. The method in brief:
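SelectScreen broad panel; activity (Z'LYTE, Adapta) plus binding formats. ATP: Km app for CSF1R Z'LYTE; 10 for CAMK1 Adapta. Readout = % per kinase.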

T1 sequence (O15146 24-869): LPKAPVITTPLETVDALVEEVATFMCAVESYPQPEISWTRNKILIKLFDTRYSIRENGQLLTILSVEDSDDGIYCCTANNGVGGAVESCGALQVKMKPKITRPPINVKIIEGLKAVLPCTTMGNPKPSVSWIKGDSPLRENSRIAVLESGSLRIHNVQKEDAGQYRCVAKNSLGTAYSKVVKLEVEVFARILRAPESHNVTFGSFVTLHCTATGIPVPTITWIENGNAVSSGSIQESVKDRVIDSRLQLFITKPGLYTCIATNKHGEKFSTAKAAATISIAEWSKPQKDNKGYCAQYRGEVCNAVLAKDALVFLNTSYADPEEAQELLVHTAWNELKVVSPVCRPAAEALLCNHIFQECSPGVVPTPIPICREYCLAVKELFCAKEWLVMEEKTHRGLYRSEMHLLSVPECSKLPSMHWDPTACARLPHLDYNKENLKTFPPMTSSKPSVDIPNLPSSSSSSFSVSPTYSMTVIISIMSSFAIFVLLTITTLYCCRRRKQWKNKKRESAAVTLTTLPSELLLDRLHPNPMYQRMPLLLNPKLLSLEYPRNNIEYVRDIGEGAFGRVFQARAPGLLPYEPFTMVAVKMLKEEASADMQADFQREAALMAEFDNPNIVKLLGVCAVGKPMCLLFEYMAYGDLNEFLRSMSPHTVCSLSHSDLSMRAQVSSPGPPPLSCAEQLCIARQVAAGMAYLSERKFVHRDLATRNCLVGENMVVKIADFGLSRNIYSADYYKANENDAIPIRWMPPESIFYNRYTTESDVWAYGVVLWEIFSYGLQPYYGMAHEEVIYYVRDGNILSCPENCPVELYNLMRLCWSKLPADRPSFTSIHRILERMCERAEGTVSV

For `CN(C(=O)CN1CCOCC1)c1ccc2sc3c(-c4cccc5c(=O)cc(N6CC7CCC(C6)O7)oc45)cccc3c2c1` [NU5455], 1 µM produced 10.3% inhibition.
